The structures appear in SMILES notation.

This experiment has as its target T1, Human PPARα (Homo sapiens, UniProt Q07869).
T1 construct: host or cells: proprietary non-human mammalian cells
T1 sequence (Q07869 1-468): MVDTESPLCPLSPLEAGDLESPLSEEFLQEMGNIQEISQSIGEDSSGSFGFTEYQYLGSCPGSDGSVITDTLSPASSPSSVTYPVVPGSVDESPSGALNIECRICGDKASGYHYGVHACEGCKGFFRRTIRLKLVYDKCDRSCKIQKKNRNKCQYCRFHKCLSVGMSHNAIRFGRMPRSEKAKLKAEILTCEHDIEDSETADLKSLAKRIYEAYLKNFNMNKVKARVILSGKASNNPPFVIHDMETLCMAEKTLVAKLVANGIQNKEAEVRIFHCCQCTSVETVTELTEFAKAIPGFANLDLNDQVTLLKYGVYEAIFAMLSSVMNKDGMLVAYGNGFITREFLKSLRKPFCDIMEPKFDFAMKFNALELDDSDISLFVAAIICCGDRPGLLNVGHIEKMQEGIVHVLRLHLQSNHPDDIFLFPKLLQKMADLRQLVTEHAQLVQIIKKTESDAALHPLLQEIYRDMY
Put plainly: Human PPARα Reporter Assay (luciferase). It counts as cell-based. Conditions: human PPARα reporter cells, overnight incubation, antagonism; read-out: Luciferase IC50. On the procedure:
Human PPARα Reporter Assay
The screening of test compounds for agonist or antagonist activities against human PPARα receptors was performed using a commercial kit, Human PPARα Reporter Assay System (Indigo Biosciences, Cat. #IB00111).
This nuclear receptor assay system utilizes proprietary non-human mammalian cells engineered to provide constitutive, high-level expression of Human PPARα. Because these cells incorporate a PPARα-responsive luciferase reporter gene, quantifying expressed luciferase activity provides a sensitive surrogate measure of PPARα activity in the treated cells. The primary application of this reporter assay system is in the screening of test samples to quantify any functional activity, either agonist or antagonist, that they may exert against human PPARα.
Briefly, reporter cells are dispensed into wells of the assay plate and then immediately dosed with test compounds. Following an overnight incubation, the treatment media is discarded and Luciferase Detection Reagent (LDR) is added. The intensity of light emission from the ensuing luciferase reaction provides a sensitive measure that is directly proportional to the relative level of PPARα activation in the reporter cells.
For orientation: In a reporter assay the amount or activity of a reporter protein is the signal.
For the molecule `CCn1c(CCCc2ccc(-c3ccc4c(c3)C(C(=O)O)CO4)cc2)nn(Cc2ccc(C(C)(C)C)cc2)c1=O` (racemic) [Example 96, (rac)-5-(4-(3-(1-(4-(tert-Butyl)benzyl)-4-ethyl-5-oxo-4,5-dihydro-1H-1,2,4-triazol-3-yl)propyl)phenyl)-2,3-dihydrobenzofuran-3-carboxylic acid], the IC50 – broadly, the midpoint of a concentration-inhibition curve – worked out at 272 nM.
The same measure for `CCn1c(CCCc2ccc(-c3cccc(CC(=O)O)c3)cc2)nn(Cc2ccc(C(C)(C)C)cc2)c1=O` [Example 1, 2-(4′-(3-(1-(4-(tert-Butyl)benzyl)-4-ethyl-5-oxo-4,5-dihydro-1H-1,2,4-triazol-3-yl)propyl)-[1,1′-biphenyl]-3-yl)acetic acid]: 95 nM; for `CCn1c(CCCc2ccc(-c3cccc(C(=O)O)c3)cc2)nn(Cc2ccc(C(C)(C)C)cc2)c1=O` [Example 2, 4′-(3-(1-(4-(tert-Butyl)benzyl)-4-ethyl-5-oxo-4,5-dihydro-1H-1,2,4-triazol-3-yl)propyl)-[1,1′-biphenyl]-3-carboxylic acid]: 57 nM; for `CCn1c(CCCc2ccc(-c3cccc(N)n3)cc2)nn(Cc2ccc(C(C)(C)C)cc2)c1=O` [Example 3, 3-(3-(4-(6-Aminopyridin-2-yl)phenyl)propyl)-1-(4-(tert-butyl)benzyl)-4-ethyl-1H-1,2,4-triazol-5(4H)-one]: 271 nM.
Next, `CCn1c(CCCc2ccc(-c3cccc(NS(=O)(=O)c4ccccc4)n3)cc2)nn(Cc2ccc(C(C)(C)C)cc2)c1=O` [Example 4, N-(6-(4-(3-(1-(4-(tert-Butyl)benzyl)-4-ethyl-5-oxo-4,5-dihydro-1H-1,2,4-triazol-3-yl)propyl)phenyl)pyridin-2-yl)benzenesulfonamide]: 40 nM; `CCn1c(CCCc2ccc(-c3ccc(N)cn3)cc2)nn(Cc2ccc(C(C)(C)C)cc2)c1=O` [Example 5, 3-(3-(4-(5-Aminopyridin-2-yl)phenyl)propyl)-1-(4-(tert-butyl)benzyl)-4-ethyl-1H-1,2,4-triazol-5(4H)-one]: 43 nM; `CCn1c(CCCc2ccc(-c3cccc(N)c3)cc2)nn(Cc2ccc(C(C)(C)C)cc2)c1=O` [Example 6, 3-(3-(3′-Amino-[1,1′-biphenyl]-4-yl)propyl)-1-(4-(tert-butyl)benzyl)-4-ethyl-1H-1,2,4-triazol-5(4H)-one]: 255 nM.
For the molecule `CCn1c(CCCc2ccc(-c3cccc(NS(=O)(=O)c4ccc(C)cc4)c3)cc2)nn(Cc2ccc(C(C)(C)C)cc2)c1=O` [Example 7, N-(4′-(3-(1-(4-(tert-Butyl)benzyl)-4-ethyl-5-oxo-4,5-dihydro-1H-1,2,4-triazol-3-yl)propyl)-[1,1′-biphenyl]-3-yl)-4-methylbenzenesulfonamide], the IC50 came to 471 nM.
Next, `CCn1c(CCCc2ccc(-c3cccc(CC(=O)NS(=O)(=O)c4ccccc4)c3)cc2)nn(Cc2ccc(C(C)(C)C)cc2)c1=O` [Example 8, 2-(4′-(3-(1-(4-(tert-Butyl)benzyl)-4-ethyl-5-oxo-4,5-dihydro-1H-1,2,4-triazol-3-yl)propyl)-[1,1′-biphenyl]-3-yl)-N-(phenylsulfonyl) acetamide]: 304 nM; `CCn1c(CCCc2ccc(-c3cccc(C(=O)NS(=O)(=O)c4ccccc4)c3)cc2)nn(Cc2ccc(C(C)(C)C)cc2)c1=O` [Example 9, 4′-(3-(1-(4-(tert-Butyl)benzyl)-4-ethyl-5-oxo-4,5-dihydro-1H-1,2,4-triazol-3-yl)propyl)-N-(phenylsulfonyl)-[1,1′-biphenyl]-3-carboxamide]: 363 nM.
The same measure for `CCn1c(CCCc2ccc(-c3cc(N)ccn3)cc2)nn(Cc2ccc(C(C)(C)C)cc2)c1=O` [Example 11, 3-(3-(4-(4-Aminopyridin-2-yl)phenyl)propyl)-1-(4-(tert-butyl)benzyl)-4-ethyl-1H-1,2,4-triazol-5(4H)-one]: 157 nM; for `CCn1c(CCCc2ccc(-c3ccc(NS(C)(=O)=O)cn3)cc2)nn(Cc2ccc(C(C)(C)C)cc2)c1=O` [Example 12, N-(6-(4-(3-(1-(4-(tert-Butyl)benzyl)-4-ethyl-5-oxo-4,5-dihydro-1H-1,2,4-triazol-3-yl)propyl)phenyl)pyridin-3-yl)methanesulfonamide]: 63 nM.
`CCn1c(CCCc2ccc(-c3cccc(C4(C(=O)O)CC4)c3)cc2)nn(Cc2ccc(C(C)(C)C)cc2)c1=O` [Example 13, 1-(4′-(3-(1-(4-(tert-Butyl)benzyl)-4-ethyl-5-oxo-4,5-dihydro-1H-1,2,4-triazol-3-yl)propyl)-[1,1′-biphenyl]-3-yl)cyclopropanecarboxylic acid]: the IC50 is 268 nM.
`CCn1c(CCCc2ccc(-c3cccc(C4(C(N)=O)CC4)c3)cc2)nn(Cc2ccc(C(C)(C)C)cc2)c1=O` [Example 14, 1-(4′-(3-(1-(4-(tert-butyl)benzyl)-4-ethyl-5-oxo-4,5-dihydro-1H-1,2,4-triazol-3-yl)propyl)-[1,1′-biphenyl]-3-yl)cyclopropanecarboxamide]: the IC50 is 284 nM.
The same measure for `CCn1c(CCCc2ccc(-c3cccc(C(C)(C)C(N)=O)c3)cc2)nn(Cc2ccc(C(C)(C)C)cc2)c1=O` [Example 15, 2-(4′-(3-(1-(4-(tert-Butyl)benzyl)-4-ethyl-5-oxo-4,5-dihydro-1H-1,2,4-triazol-3-yl)propyl)-[1,1′-biphenyl]-3-yl)-2-methylpropanamide]: 519 nM; for `CCn1c(CCCc2ccc(-c3cc(NS(=O)(=O)c4ccccc4)ccn3)cc2)nn(Cc2ccc(C(C)(C)C)cc2)c1=O` [Example 16, N-(2-(4-(3-(1-(4-(tert-Butyl)benzyl)-4-ethyl-5-oxo-4,5-dihydro-1H-1,2,4-triazol-3-yl)propyl)phenyl)pyridin-4-yl)benzenesulfonamide]: 90 nM.
For `CCn1c(CCCc2ccc(-c3cccc(CC(=O)O)c3F)cc2)nn(Cc2ccc(C(C)(C)C)cc2)c1=O` [Example 18, 2-(4′-(3-(1-(4-(tert-Butyl)benzyl)-4-ethyl-5-oxo-4,5-dihydro-1H-1,2,4-triazol-3-yl)propyl)-2-fluoro-[1,1′-biphenyl]-3-yl)acetic acid], the IC50 came out at 1420 nM.
As to `CCn1c(CCCc2ccc(-c3cc(CC(=O)O)ccc3F)cc2)nn(Cc2ccc(C(C)(C)C)cc2)c1=O` [Example 19, 2-(4′-(3-(1-(4-(tert-Butyl)benzyl)-4-ethyl-5-oxo-4,5-dihydro-1H-1,2,4-triazol-3-yl)propyl)-6-fluoro-[1,1′-biphenyl]-3-yl)acetic acid], the concentration for half-maximal inhibition (IC50) is 796 nM.
Next, `CCn1c(CCCc2ccc(-c3cc(CC(=O)O)ccc3OC)cc2)nn(Cc2ccc(C(C)(C)C)cc2)c1=O` [Example 20, 2-(4′-(3-(1-(4-(tert-Butyl)benzyl)-4-ethyl-5-oxo-4,5-dihydro-1H-1,2,4-triazol-3-yl)propyl)-6-methoxy-[1,1′-biphenyl]-3-yl)acetic acid]: 1830 nM; `CCn1c(CCCc2ccc(-c3ccc(OC)c(CC(=O)O)c3)cc2)nn(Cc2ccc(C(C)(C)C)cc2)c1=O` [Example 21, 2-(4′-(3-(1-(4-(tert-Butyl)benzyl)-4-ethyl-5-oxo-4,5-dihydro-1H-1,2,4-triazol-3-yl)propyl)-4-methoxy-[1,1′-biphenyl]-3-yl)acetic acid]: 25 nM; `CCn1c(CCCc2ccc(-c3cccc(CC(=O)O)c3)cc2)nn(Cc2ccc(C3CC3)cc2)c1=O` [Example 22, 2-(4′-(3-(1-(4-Cyclopropylbenzyl)-4-ethyl-5-oxo-4,5-dihydro-1H-1,2,4-triazol-3-yl)propyl)-[1,1′-biphenyl]-3-yl)acetic acid]: 612 nM.
Next, `CCn1c(CCCc2ccc(-c3cccc(CC(=O)O)c3)cc2)nn(Cc2ccc(C(F)(F)F)cc2)c1=O` [Example 24, 2-(4′-(3-(4-Ethyl-5-oxo-1-(4-(trifluoromethyl)benzyl)-4,5-dihydro-1H-1,2,4-triazol-3-yl)propyl)-[1,1′-biphenyl]-3-yl)acetic acid]: 579 nM; `CCn1c(CCCc2ccc(-c3nc(NC(=O)OC(C)(C)C)co3)cc2)nn(Cc2ccc(C(C)(C)C)cc2)c1=O` [Example 25, tert-Butyl (2-(4-(3-(1-(4-(tert-butyl)benzyl)-4-ethyl-5-oxo-4,5-dihydro-1H-1,2,4-triazol-3-yl)propyl)phenyl)oxazol-4-yl)carbamate]: 184 nM.
The same measure for `CCn1c(CCCc2ccc(-c3cccc(CC(=O)O)c3)cc2)nn(Cc2ccc(C3CCCCC3)cc2)c1=O` [Example 26, 2-(4′-(3-(1-(4-Cyclohexylbenzyl)-4-ethyl-5-oxo-4,5-dihydro-1H-1,2,4-triazol-3-yl)propyl)-[1,1′-biphenyl]-3-yl)acetic acid]: 4110 nM; for `CCn1c(COCc2ccc(-c3cccc(CC(=O)O)c3)cc2)nn(Cc2ccc(C(C)(C)C)cc2)c1=O` [Example 27, 2-(4′(((1-(4-(tert-Butyl)benzyl)-4-ethyl-5-oxo-4,5-dihydro-1H-1,2,4-triazol-3-yl)methoxy)methyl)-[1,1′-biphenyl]-3-yl)acetic acid]: 2170 nM.

(Values after US9505728B2, “Triazolone compounds and uses thereof” (INCEPTION 2, INC., priority 2012, dated 2016).)
